Assay results taken from patent publication US8937188B2, “Process for the preparation of lasofoxifene tartrate” (Glenmark Generics Ltd., priority 2009, dated 2015).

melting point: 71 to 75 °C
Structure (SMILES): COc1ccc2c(c1)CCC=C2c1ccc(OCCN2CCCC2)cc1 [Example 1, 1-{2-[4-(6-Methoxy-3,4-dihydronaphthalene-1-yl)phenoxy]ethyl}pyrrolidine]
